Assay results reported in patent US11357778B2, “Antagonist of the fibroblast growth factor receptor 3 (FGFR3) for use in the treatment or the prevention of skeletal disorders linked with abnormal activation of FGFR3” (INSTITUT NATIONAL DE LA SANTE ET DE LE RECHERCHE MEDICALE …, priority 2011, dated 2022).

Legend:
[1] = system: Fgfr3^Y367C/+ femurs; test: Ex vivo culture of E16.5 embryonic femur explants, bone length; format: cell-based, mouse; details: for gain in femur length: Fgfr3^Y367C/+ femurs
Protocol: Six sets of ex vivo experiments were performed. Femur embryos at day E16.5 from WT (n=6) and Fgfr3^Y367C/+ (n=6) mice were used and incubated for 5 days in DMEM medium with antibiotics and 0.2% BSA (Sigma) supplemented with A31 or PD173074 (as control) at a concentration of 2 mM. Right femur was cultured in supplemented medium and compared with the left one cultured in control medium. Rib cage from E16.5 WT and Fgfr3^Y367C/+ mice embryos were isolated and stripped of all soft tissues. Primary chondrocytes were obtained from rib cages. The ribs were incubated in a pronase solution (Roche; 2 mg/ml) followed by a digestion in Collagenase A (Roche; 3 mg/ml) at 37° C. Isolated chondrocytes were plated out at a density of 2.105 cells in 6-well plates containing DMEM supplemented with 10% FCS and antibiotics, and were allowed to reach subconfluency. Cultures were supplemented with A31 or PD173074 (as control) at a concentration of 2 mM. Cells were treated with A31 (2 mM) PD173074 (as control) in serum-free DMEM supplemented with 0.2% BSA and harvested after 24 h. To establish the effect of the inhibitors, the right femur was cultured in supplemented medium and compared with the left one cultured in control medium The bone length was measured at the beginning (before treatment) and at the end of time course. Each experiment was repeated at least three times. The genotype of WT, Fgfr3^Y367C/+ and Fgfr3^−/− mice were determined by PCR of tail DNA as previously described (Pannier et al., Biochim Biophys Acta, 1792: 140-147, 2009). All experimental procedures and protocols were approved by the Animal Care and Use Committee.
Fgfr3^Y367C/+ mice display reduced length of long bones, broad femurs, a narrow trunk, short ribs and a slightly dome-shaped skull, closely resembling achondroplasia (FIGS. 3A and B). The inventors analyzed the effects of A31 on endochondral ossification in Fgfr3^Y367C/+ mice by using an ex vivo culture system for embryonic day 16.5 (E16.5) limb explants. […] After 5 days of culture, the increase in length of the treated mutant femurs was 2.6 times more than for that of WT.
Thus, embryonic femur explants were co-incubated with 150 nM of PD173074 for 5 days.
Embryonic femur explants were co-incubated 100 nM (10^−7M) or 1 μM (10^−6M) of BGJ-398 for 6 days.

[2] = system: Fgfr3^Y367C/+ mice; test: Dwarfism mouse model, X-rays analysis of skeleton and body growth; format: in vivo; details: 10 days
Protocol: The effectiveness of PD173074 and BGJ-398 in attenuating the dwarfism phenotype of Fgfr3^Y367C/+ mice was assessed in viva. The mice were seven days of age at treatment initiation and received daily subcutaneous administration of 4.00 mg/kg PD173074 or of 1.66 mg/kg BGJ-398 for 10 days.
The effectiveness of PD173074 in attenuating the dwarfism phenotype of Fgfr3^Y367C/+ mice was assessed in vivo. The mice were seven days of age at treatment initiation and received daily subcutaneous administrations of 4.00 mg/kg of PD173074 for 10 days.
Seven days old mice received daily subcutaneous administrations of 1.66 mg/kg of BGJ-398 for 10 days.

[3] = system: Fgfr3^Y367C/+ growth plate; test: Histology of cultured femur growth plate (HES staining, type X collagen in situ hybridization); format: cell-based, mouse
Protocol: Limb explants were fixed after culture in 4% paraformaldehyde at 4° C., and placed in a staining solution for 45-60 minutes (0.05% Alizarin Red, 0.015% Alcian Blue, 5% acetic acid in 70% ethanol) or embedded in paraffin. Serial […] were stained with Hematoxylin-Eosin using standard protocols for histological analysis or were subjected to in situ hybridization or immunohistochemical staining. In situ hybridization using [S35]-UTP labeled antisense ribopropes for collagen X was carried out as previously described (Delezoide et al., Hum Mol Genet, 6, 1899-1906, 1997). Sections were counterstained with Hematoxylin. For immunohistochemistry, sections were stained with antibodies specific to FGFR3 (1:250 dilution; Sigma), anti PCNA (1:1000 dilution; Abcam), anti-KI67 (1:300; Abcam), anti-cyclin D1 (1:80 dilution; Santa Cruz) and anti-p57 (1:100 dilution; Santa Cruz) using the Dako Envision kit. Images were captured with an Olympus PD70-IX2-UCB microscope. […] The inventors evaluated the impact of A31 on the growth plate (FIG. 4A). […] Histological examinations using HES staining (FIG. 10A) and type X collagen labeling (FIG. 10B) were also carried out.

[4] = system: FGFR3Y373C, FGFR3K650E, FGFR3K650M, FGFR3G380R; test: Constitutive FGFR3 phosphorylation in HEK-293 cells transiently expressing activated FGFR3; format: cell-based, human; details: 10 μM, data not shown

| Structure (SMILES) | femur size over concentration (in words) ([1]; BGJ-398 100 nM to 1 μM, 6 days) | gain in femur length ([1]; BGJ-398 100 nM, 6 days) | dwarfism phenotype (X-rays) ([2]; BGJ-398 1.66 mg/kg daily subcutaneous, from 7 days of age) | chondrocyte morphology (HES staining) ([3]; BGJ-398 10^−6M) | size of the hypertrophic zone of the femur explants ([3]; BGJ-398, Fgfr3^Y367C/+ femur explants) | type X collagen expression (in situ hybridization) ([3]; BGJ-398, Fgfr3^Y367C/+ growth plate) | constitutive FGFR3 receptor phosphorylation [4] | gain in femur length ([1]; PD173074 150 nM, 5 days) | body size ([2]; PD173074 4.00 mg/kg daily subcutaneous) | dwarfism phenotype (X-rays, clinical features) ([2]; PD173074 4.00 mg/kg daily subcutaneous, from 7 days of age) |
| --- | --- | --- | --- | --- | --- | --- | --- | --- | --- | --- |
| CCN1CCN(c2ccc(Nc3cc(N(C)C(=O)Nc4c(Cl)c(OC)cc(OC)c4Cl)ncn3)cc2)CC1 [BGJ-398, reference compound] | concentration-dependent increase | 71.86% | Dramatic phenotypic changes | larger and more spherical | increases | enhanced type X collagen expression | abolished receptor phosphorylation | – | – | – |
| CCN(CC)CCCCNc1ncc2cc(-c3cc(OC)cc(OC)c3)c(NC(=O)NC(C)(C)C)nc2n1 [PD173074] | – | – | – | – | – | – | – | 77% | overall increase in body size | Amelioration in key relevant achondroplasia clinical features |
